The results in this text go back to ChEMBL document CHEMBL1122992, “Phosphorus-nitrogen compounds. 26. Phosphaminimides. 2. 2,2'-Phosphinylidenebis(1,1,1-trimethylhydrazinium) iodide inner salts as agents affecting ganglionic transmission” (J Med Chem, 1985).

For the data set, the system named is Rattus norvegicus. Nature of the data set: LD50 values was measured by using probit analysis method in rats. It counts as ADME, organism-based. The note with it: in vivo.
`C[N+](C)(C)N=P([O-])(N[N+](C)(C)C)c1ccccc1.[I-]` (stereo unspecified): the LD50 is recorded as ~ 15 ug ml-1. In the case of `C[N+](C)(C)NP(=O)(N[N+](C)(C)C)Oc1ccccc1.[I-].[I-]` it was 2.37 µg/mL; in that of `C[N+](C)(C)[N-]P(=O)(N[N+](C)(C)C)Oc1ccccc1.[I-]` (stereo unspecified), 15 µg/mL. As for `C[N+](C)(C)[N-]P(=O)(N[N+](C)(C)C)c1ccccc1.[I-]` (stereo unspecified), the LD50 is ~ 15 ug ml-1. With `C[N+](C)(C)N=P([O-])(N[N+](C)(C)C)Oc1ccccc1.[I-]` (stereo unspecified), the LD50 is ~ 15 ug ml-1.

Compound `C[N+](C)(C)NP(=O)(N[N+](C)(C)C)c1ccccc1.[I-].[I-]` had an LD50 of 2.15 µg/mL.
